Data from article PMC6562844, “A Basic Study of Photodynamic Therapy with Glucose-Conjugated Chlorin e6 Using Mammary Carcinoma Xenografts” (Cancers, 2019).
Where a SMILES comes first, the peptide text is derived from it. The star is where a group is joined. Cbz = O=C(OCc1ccccc1)*; CH2F = FC*

What was measured:
[1] = set-up: method as in earlier work; conditions: cited from earlier work
SNP cells [2] = assay: Photodynamic cytotoxicity in SNP cells (Cell Counting Kit-8); type: cell-based, canine; conditions: 24 h incubation, 650-nm laser 10 mW/cm^2, viability 24 h after PDT
Experimental: We seeded 1 × 10^4 SNP cells into each well of 96-well plates (Corning Inc., New York, NY, USA) followed by overnight incubation. Cells were then incubated with various concentrations of G-Ce6 for 24 h at 37 °C. After washing with fresh media, the cells were irradiated with 650-nm light emitted by a semiconductor laser (Osada Electric Co., Ltd., Tokyo, Japan), using an optical fiber with a micro-lens delivery attachment (Pioneer Optics, Inc., Windsor Lock, CT, USA). PDT was performed at 10 mW/cm^2 in cells exposed to six concentrations of NPe6 and G-Ce6 (0, 0.064, 0.32, 1.6, 8.0, or 40.0 μg/mL) using four light doses (0, 1, 5, or 15 J/cm^2). The cells were then incubated for 24 h in the dark prior to examining cell viability using the Cell Counting Kit-8 (Dojindo, Kumamoto, Japan), according to the manufacturer’s instructions.

SNP cells [3] = assay: Effect of a pan-caspase inhibitor on G-Ce6-PDT-induced cell death; type: cell-based, canine; conditions: 10 μM Z-VAD-FMK; 8 μg/mL G-Ce6; 5 J/cm^2
Experimental: SNP cells were incubated with 8 μg/mL G-Ce6 for 24 h in the presence (10 μM) or absence of Z-VAD-FMK (Medical & Biological Laboratories Co. Ltd., Aichi, Japan), which is a pan-caspase inhibitor. After washing with fresh media, the cells were irradiated with 650-nm laser light (10 mW/cm^2, 5 J/cm^2) emitted by a semiconductor laser, using an optical fiber with a microlens delivery attachment. Apoptosis was assessed at 4 h after laser irradiation using the Muse Annexin V and Dead Cell Assay kit.

Compound: porfimer sodium
- AUC [1]: 1670.2 ± 71.6 µg·h/mL
- T1/2 [1]: 44.22 ± 8.10 h

Compound: C=Cc1c(C)c2cc3nc(c(CC(=O)N[C@@H](CC(=O)[O-])C(=O)[O-])c4[nH]c(cc5nc(cc1[nH]2)C(C)=C5CC)c(C)c4C(=O)[O-])[C@@H](CCC(=O)[O-])[C@@H]3C.[Na+].[Na+].[Na+].[Na+] [NPe6, mono-L-aspartyl chlorin e6, reference compound]
- IC50 against SNP cells (SNP cells [2]; light dose 1 J/cm^2): 75.2 µg/mL
- IC50 against SNP cells (SNP cells [2]; light dose 5 J/cm^2): 30.4 µg/mL
- IC50 against SNP cells (SNP cells [2]; light dose 15 J/cm^2): 30.6 µg/mL

Compound: COC(=O)C[C@H](NC(=O)[C@H](C)NC(=O)[C@@H](NC(=O)OCc1ccccc1)C(C)C)C(=O)CF [Z-VAD-FMK, reference compound] (Cbz-Val-Ala-Asp(OMe)-CH2F)
- Influence on number of Annexin V-positive cells and cytotoxicity induced by G-Ce6-mediated PDT (SNP cells [3]): did not influence
